Consider 8 compounds from patent US7442717B2, “Substituted 2-aminoimidazoles, process for their preparation, their use as medicament or diagnostic aid” (Sanofi-Aventis Deutschland GmbH, priority 2003, dated 2008).

One assay has as its target T1, rNHE3 (Rattus norvegicus, UniProt P26433).
T1 construct: expressed in transfected cells; host or cells: LAP 1 cells (fibroblasts)
The experiment in a line: Recovery of intracellular pH (pHi) after acidification, BCECF fluorescence, in fibroblasts (LAP 1 cells). The format is cell-based. Particulars: pH recovery in LAP 1 fibroblasts. As for the experimental part: In this test, the recovery in the intracellular pH (pHi) after an acidification was ascertained, which is initiated if the NHE3 is capable of functioning, even under bicarbonate-free conditions. For this purpose, the pHi was determined using the pH-sensitive fluorescent dye BCECF (Calbiochem, the precursor BCECF-AM is employed). The cells (fibroblasts, LAP 1 cells) were initially loaded with BCECF. The BCECF fluorescence was determined in a “Ratio Fluorescence Spectrometer” (Photon Technology International, South Brunswick, N.J., USA) at excitation wavelengths of 505 and 440 nm and an emission wavelength of 535 nm and converted into the pHi using calibration curves. The cells were incubated in NH4Cl buffer (pH 7.4) (NH4Cl buffer: 115 mM NaCl, 20 mM NH4Cl, 5 mM KCl, 1 mM CaCl2, 1 mM MgSO4, 20 mM Hepes, 5 mM glucose, 1 mg/ml BSA; a pH of 7.4 is adjusted with 1 M NaOH) even during the BCECF loading. The intracellular acidification was induced by adding 975 μl of an NH4Cl-free buffer (see below) to 25 μl aliquots of the cells incubated in NH4Cl buffer. The subsequent rate of pH recovery was recorded for three minutes. To calculate the inhibitory potency of the tested substances, the cells were initially investigated in buffers with which a complete or absolutely no pH recovery took place. For complete pH recovery (100%), the cells were incubated in Na^+-containing buffer (133.8 mM NaCl, 4.7 mM KCl, 1.25 mM CaCl2, 1.25 mM MgCl2, 0.97 mM Na2HPO4, 0.23 mM NaH2PO4, 5 mM Hepes, 5 mM glucose, a pH of 7.0 is adjusted with 1 M NaOH). To determine the 0% value, the cells were incubated in an Na^+-free buffer (133.8 mM choline chloride, 4.7 mM KCl, 1.25 mM CaCl2, 1.25 mM MgCl2, 0.97 mM K2HPO4, 0.23 mM KH2PO4, 5 mM Hepes, 5 mM glucose, a pH of 7.0 is adjusted with 1 M KOH). The substances to be tested were made up in the Na^+-containing buffer. The recovery of the intracellular pH at each test concentration of a substance was expressed as a percentage of the maximum recovery. The IC50 value for the particular substance for the individual NHE subtypes was calculated from the pH recovery percentages using the Sigma-Plot program.

For another assay, the target named is NHE2 (Rattus norvegicus, UniProt P48763). The conditions noted are these: read-out: IC50 for NHE2; literature value, J. Orlowski et al; cited from earlier work.
The next assay deals with adrenergic α2 receptor. Particulars: literature, Ernsberger et al Eur. J. Pharmacol. 134, 1, 1987; cited from earlier work.
A further assay deals with imidazoline I1 receptor. Particulars: literature, Ernsberger et al Eur. J. Pharmacol. 134, 1, 1987; cited from earlier work.
In the next assay the target is NHE3 (Oryctolagus cuniculus, UniProt P26432). The conditions noted are these: literature, M. Donowitz et al. Am. J. Physiol. 276; cited from earlier work.

Counter-ions that a name gives are not always drawn.

T1 sequence (P26433 29-831): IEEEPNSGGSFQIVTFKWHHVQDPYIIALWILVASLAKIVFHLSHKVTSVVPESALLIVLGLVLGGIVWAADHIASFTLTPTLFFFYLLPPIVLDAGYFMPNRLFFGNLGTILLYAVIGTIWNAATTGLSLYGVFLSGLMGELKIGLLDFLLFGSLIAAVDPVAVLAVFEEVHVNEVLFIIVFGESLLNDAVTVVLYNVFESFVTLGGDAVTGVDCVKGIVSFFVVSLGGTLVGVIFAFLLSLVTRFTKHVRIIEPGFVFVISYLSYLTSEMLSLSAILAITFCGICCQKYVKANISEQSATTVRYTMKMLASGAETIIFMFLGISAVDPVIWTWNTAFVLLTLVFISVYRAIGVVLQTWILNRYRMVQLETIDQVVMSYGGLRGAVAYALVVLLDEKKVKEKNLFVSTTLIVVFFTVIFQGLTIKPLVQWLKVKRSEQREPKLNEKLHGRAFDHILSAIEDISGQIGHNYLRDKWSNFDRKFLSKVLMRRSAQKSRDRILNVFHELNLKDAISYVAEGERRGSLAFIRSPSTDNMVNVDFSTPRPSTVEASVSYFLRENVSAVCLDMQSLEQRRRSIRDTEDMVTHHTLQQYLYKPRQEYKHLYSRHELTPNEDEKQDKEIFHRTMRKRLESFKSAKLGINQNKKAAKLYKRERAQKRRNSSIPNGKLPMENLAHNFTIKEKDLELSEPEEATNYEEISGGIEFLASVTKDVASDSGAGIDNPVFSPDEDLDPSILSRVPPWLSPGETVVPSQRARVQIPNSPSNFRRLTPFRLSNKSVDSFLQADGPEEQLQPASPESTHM
NHE2, sequence (P48763 whole entry): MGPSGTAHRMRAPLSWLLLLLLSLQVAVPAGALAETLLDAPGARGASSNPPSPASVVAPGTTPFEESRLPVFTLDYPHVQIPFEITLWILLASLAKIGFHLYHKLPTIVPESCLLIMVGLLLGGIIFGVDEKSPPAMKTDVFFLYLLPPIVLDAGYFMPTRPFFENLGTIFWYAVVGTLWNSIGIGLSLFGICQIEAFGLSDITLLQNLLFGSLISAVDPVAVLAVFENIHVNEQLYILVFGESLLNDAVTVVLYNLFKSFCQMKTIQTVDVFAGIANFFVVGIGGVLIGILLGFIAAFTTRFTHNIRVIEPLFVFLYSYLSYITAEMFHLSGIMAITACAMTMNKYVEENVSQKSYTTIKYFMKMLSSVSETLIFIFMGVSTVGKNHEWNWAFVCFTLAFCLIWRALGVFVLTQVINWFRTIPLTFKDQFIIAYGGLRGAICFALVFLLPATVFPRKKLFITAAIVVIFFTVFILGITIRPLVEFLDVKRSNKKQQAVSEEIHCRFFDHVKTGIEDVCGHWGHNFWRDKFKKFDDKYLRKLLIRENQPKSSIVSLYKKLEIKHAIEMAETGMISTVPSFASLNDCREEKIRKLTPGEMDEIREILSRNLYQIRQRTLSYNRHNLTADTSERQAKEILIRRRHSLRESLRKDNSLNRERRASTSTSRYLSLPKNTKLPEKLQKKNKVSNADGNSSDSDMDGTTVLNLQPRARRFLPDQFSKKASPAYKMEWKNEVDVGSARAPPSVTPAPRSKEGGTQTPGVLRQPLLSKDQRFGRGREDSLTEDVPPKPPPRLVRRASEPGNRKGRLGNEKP
NHE3, sequence (P26432 30-832): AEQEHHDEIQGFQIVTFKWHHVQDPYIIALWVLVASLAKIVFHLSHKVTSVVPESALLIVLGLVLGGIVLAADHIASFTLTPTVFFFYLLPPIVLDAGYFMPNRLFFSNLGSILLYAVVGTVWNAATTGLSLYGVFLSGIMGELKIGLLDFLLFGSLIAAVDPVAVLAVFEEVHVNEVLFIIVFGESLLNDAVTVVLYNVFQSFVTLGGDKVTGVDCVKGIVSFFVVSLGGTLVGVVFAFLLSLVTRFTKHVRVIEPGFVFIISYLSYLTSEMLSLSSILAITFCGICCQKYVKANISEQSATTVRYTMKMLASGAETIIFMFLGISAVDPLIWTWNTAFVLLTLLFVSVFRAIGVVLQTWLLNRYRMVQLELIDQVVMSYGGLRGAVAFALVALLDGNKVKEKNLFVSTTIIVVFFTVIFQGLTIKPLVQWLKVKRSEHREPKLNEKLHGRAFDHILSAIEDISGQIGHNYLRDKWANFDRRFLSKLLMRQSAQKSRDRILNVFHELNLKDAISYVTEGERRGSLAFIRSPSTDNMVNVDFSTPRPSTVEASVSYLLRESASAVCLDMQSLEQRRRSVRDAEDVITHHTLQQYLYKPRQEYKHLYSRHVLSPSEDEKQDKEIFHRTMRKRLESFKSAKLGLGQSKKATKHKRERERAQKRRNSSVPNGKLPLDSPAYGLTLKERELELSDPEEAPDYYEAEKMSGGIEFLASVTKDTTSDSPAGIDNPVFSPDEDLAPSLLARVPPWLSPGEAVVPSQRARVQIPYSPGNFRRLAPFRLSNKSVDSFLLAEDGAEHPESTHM

The term IC50 denotes the concentration at which inhibition is half-maximal. `N#Cc1nc(Nc2c(Cl)cccc2Cl)[nH]c1C#N` [Example 6, 2-(2,6-Dichlorophenylamino)-1H-imidazole-4,5-dicarbonitrile]: the IC50 at rNHE3 was determined as 98 µM.

On to `Clc1cccc(Cl)c1N=C1NCCN1` [Clonidine], for which the IC50 at NHE2 is 42000 nM. Further, in the assay with adrenergic α2 receptor, the “affinity for the adrenergic α2 receptor” value was “high affinity”. For the same compound, the “affinity for the imidazoline I1 receptor” value in the assay on imidazoline I1 receptor is given as “high affinity”.

Consider `Cc1nc(Nc2c(Cl)cccc2Cl)[nH]c1C` [Example 3, (2,6-Dichlorophenyl)(4,5-dimethyl-1H-imidazol-2-yl)amine hydrochloride], for which the IC50 at rNHE3 worked out at 0.84 µM.

At rNHE3, `Cc1c[nH]c(Nc2c(Cl)cccc2Cl)n1` [Example 2, (2,6-Dichlorophenyl)(4-methyl-1H-imidazol-2-yl)amine hydrochloride] displayed an IC50 of 1.7 µM.

Consider `CN(c1nc2c([nH]1)CCCC2)c1c(Cl)cccc1Cl` [Example 7, hydrochloride], for which inhibition against rNHE3 was half-maximal at 0.28 µM (IC50).

With `CC(C)[C@@H](CC[C@@H](C)[C@H]1CC[C@H]2[C@@H]3[C@H](O)C[C@H]4C[C@@H](NCCCNCCCCN)CC[C@]4(C)[C@H]3CC[C@]12C)OS(=O)(=O)O` [Squalamine], the “time to maximum strength of NHE3-inhibiting effect” value at NHE3 is listed as “only after one hour”.

On rNHE3, `Clc1cccc(Cl)c1Nc1ncc[nH]1` [Example 1, (2,6-Dichlorophenyl)(1H-imidazol-2-yl)amine hydrochloride] came in with an IC50 of 7.7 µM.

As to `Clc1cccc(Cl)c1Nc1nc2c([nH]1)CCCC2` [Example 5, (2,6-Dichlorophenyl)(4,5,6,7-tetrahydro-1H-benzoimidazol-2-yl)amine hydrochloride], at rNHE3, the IC50 worked out at 0.24 µM.
